In ChEMBL document CHEMBL1201862, “PubChem BioAssay data set” (2004):
Where “and” joins values, the source holds several entries; their conditions need not be identical. Identical values can stand only once.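 Grown in 96-well plates, cells were treated for 48 hours with each compound at five concentrations. Insufficient inhibition: endpoint recorded as highest concentration tested. GI50 is the concentration that inhibits growth by half.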 Calls of active or inactive are those of the source. Rule as the data show it: active = GI50 up to about 1.1 µM and inactive = higher.

Experiments:
Test in all cases: growth of human tumour cells (NCI), 48 h
[1] = tested on: BT-549
[2] = tested on: CAKI-1
[3] = tested on: DU-145
[4] = tested on: HT-29
[5] = tested on: Hs-578T
[6] = tested on: K562
[7] = tested on: LOX IMVI
[8] = tested on: M14
[9] = tested on: MDA-MB-231
[10] = tested on: NCI-H23
[11] = tested on: NCI-H460
[12] = tested on: NCI/ADR-RES
[13] = tested on: OVCAR-3
[14] = tested on: OVCAR-5
[15] = tested on: OVCAR-8
[16] = tested on: SF-268
[17] = tested on: SF-295
[18] = tested on: SK-MEL-2
[19] = tested on: T47D

| Compound | GI50 [1] | GI50 [2] | GI50 [3] | GI50 [4] | GI50 [5] | GI50 [6] | GI50 [7] | GI50 [8] | GI50 [9] | GI50 [10] | GI50 [11] | GI50 [12] | GI50 [13] | GI50 [14] | GI50 [15] | GI50 [16] | GI50 [17] | GI50 [18] | GI50 [19] |
| --- | --- | --- | --- | --- | --- | --- | --- | --- | --- | --- | --- | --- | --- | --- | --- | --- | --- | --- | --- |
| COC(=O)c1ccccc1CC1Cc2ccc3c(c2C1=O)CCC3 (stereo unspecified) | 34.7 µM (inactive) | 55.1 µM (inactive) | > 100 µM (inactive) | 27.9 µM (inactive) | 43.3 µM (inactive) | 33.2 µM (inactive) | 29.5 µM (inactive) | 39.5 µM (inactive) | 46.2 µM (inactive) | 39.6 µM (inactive) | 92.3 µM (inactive) | 28.8 µM (inactive) | > 100 µM (inactive) | > 100 µM (inactive) | 49.5 µM (inactive) | > 100 µM (inactive) | 57.1 µM (inactive) | 43.9 µM (inactive) | 19.7 µM (inactive) |
| COc1cc([C@H]2OC[C@H]3[C@@H]2CO[C@@H]3c2cc(OC)c3c(c2)OCO3)cc(OC)c1OC | 31.6 µM (inactive) and 52.1 µM (inactive) | 52.7 µM (inactive) and 25 µM (inactive) | 81.3 µM (inactive) | 37.3 µM (inactive) and 54.6 µM (inactive) | 51.3 µM (inactive) and 59.3 µM (inactive) | 39.4 µM (inactive) and 73.3 µM (inactive) | 70.6 µM (inactive) and 96.8 µM (inactive) | 65.3 µM (inactive) | > 100 µM (inactive) and 50.4 µM (inactive) | 37.4 µM (inactive) and 63 µM (inactive) | 33.7 µM (inactive) and 33.9 µM (inactive) | 23.4 µM (inactive) and 33.3 µM (inactive) | 87.1 µM (inactive) | > 100 µM (inactive) | 31.3 µM (inactive) and 49.3 µM (inactive) | 68.2 µM (inactive) and 59.2 µM (inactive) | 48.1 µM (inactive) and 47.9 µM (inactive) | > 100 µM (inactive) | 34.2 µM (inactive) and 37.9 µM (inactive) |
| OC/C=C/[C@H](OCc1ccccc1)[C@H](/C=C/CO)OCc1ccccc1 | 59.2 µM (inactive) | > 100 µM (inactive) | 81.1 µM (inactive) | 24.3 µM (inactive) | 47.4 µM (inactive) | 24.8 µM (inactive) | 20.4 µM (inactive) | 76.6 µM (inactive) | 50.4 µM (inactive) | 47.8 µM (inactive) | 57.8 µM (inactive) | 32.4 µM (inactive) | 39.7 µM (inactive) | > 100 µM (inactive) | 46.2 µM (inactive) | 40.2 µM (inactive) | 32.5 µM (inactive) | 37.4 µM (inactive) | 23.7 µM (inactive) |
| CC(=O)OCC1OC(N2C(C)=C(C(C)=O)C(c3ccc(Cl)cc3)C(C#N)=C2S)C(OC(C)=O)C(OC(C)=O)C1OC(C)=O (stereo unspecified) | 62.4 µM (inactive) | > 100 µM (inactive) | 68.5 µM (inactive) | 42.7 µM (inactive) | 28.5 µM (inactive) | 31.1 µM (inactive) | 76.2 µM (inactive) | 56.8 µM (inactive) | 87.5 µM (inactive) | > 10 µM (inactive) | 45.1 µM (inactive) | 8.71 µM (inactive) | 61.4 µM (inactive) | > 100 µM (inactive) | 52.5 µM (inactive) | 65.8 µM (inactive) | 66.2 µM (inactive) | 37.6 µM (inactive) | 24.5 µM (inactive) |
| CC(Oc1ccccc1)C(=O)NNC(=O)OC(C)(C)C (stereo unspecified) | > 100 µM (inactive) | > 100 µM (inactive) | > 100 µM (inactive) | > 100 µM (inactive) | > 100 µM (inactive) | > 100 µM (inactive) | > 100 µM (inactive) | > 100 µM (inactive) | > 100 µM (inactive) | > 100 µM (inactive) | > 100 µM (inactive) | > 100 µM (inactive) | > 100 µM (inactive) | > 100 µM (inactive) | > 100 µM (inactive) | > 100 µM (inactive) | > 100 µM (inactive) | > 100 µM (inactive) | > 100 µM (inactive) |
| CC(C)c1c(O)ccc2c1CCC1C(C)(C)CCCC21C (stereo unspecified) | 18.5 µM (inactive) | 16.3 µM (inactive) | 14.8 µM (inactive) | 16.9 µM (inactive) | 26.7 µM (inactive) | 21.6 µM (inactive) | 17.1 µM (inactive) | 16.2 µM (inactive) | 19 µM (inactive) | 17.3 µM (inactive) | 17.4 µM (inactive) | 16.9 µM (inactive) | 18.6 µM (inactive) | 14.6 µM (inactive) | 17.8 µM (inactive) | 19.9 µM (inactive) | 17.9 µM (inactive) | 16.7 µM (inactive) | 0.0173 µM (active) |
| Cc1ccc(/C=C2\CN(C)CC3C2=NC(=S)NC3c2ccc(C)cc2)cc1 (stereo unspecified) | > 72.4 µM (inactive) | > 77.1 µM (inactive) | > 85.7 µM (inactive) | 27.2 µM (inactive) | > 100 µM (inactive) | 38.7 µM (inactive) | 34.7 µM (inactive) | 42.5 µM (inactive) | > 68.7 µM (inactive) | > 74 µM (inactive) | 41.8 µM (inactive) | 30.8 µM (inactive) | 38.6 µM (inactive) | > 100 µM (inactive) | 53.1 µM (inactive) | > 74.3 µM (inactive) | 61.8 µM (inactive) | > 30.7 µM (inactive) | 26 µM (inactive) |
| C[N+](C)(N)Cc1csc(-c2ccc(Cl)cc2)n1 | 34 µM (inactive) | > 100 µM (inactive) | > 100 µM (inactive) | > 100 µM (inactive) | 23.9 µM (inactive) | > 100 µM (inactive) | > 100 µM (inactive) | > 100 µM (inactive) | > 100 µM (inactive) | > 100 µM (inactive) | > 100 µM (inactive) | > 100 µM (inactive) | 89.5 µM (inactive) | > 100 µM (inactive) | > 100 µM (inactive) | 46.5 µM (inactive) | 67.1 µM (inactive) | > 100 µM (inactive) | 80 µM (inactive) |
| OCCNCNc1nc(NCNCCO)nc(N(CNCCO)CNCCO)n1 | 21.1 µM (inactive) | 22.4 µM (inactive) | 18.5 µM (inactive) | 21.7 µM (inactive) | 32 µM (inactive) | 19.9 µM (inactive) | 17 µM (inactive) | 19 µM (inactive) | 22.8 µM (inactive) | 21.2 µM (inactive) | 21.9 µM (inactive) | 24.4 µM (inactive) | 22.6 µM (inactive) | 13.6 µM (inactive) | 24.3 µM (inactive) | 23.7 µM (inactive) | 30.6 µM (inactive) | 21.5 µM (inactive) | 23.7 µM (inactive) |
| CCN(C(=O)N[C@@H](C)C(=O)N[C@@H](Cc1ccccc1)C(=O)OC)c1ccccc1 | > 100 µM (inactive) | > 100 µM (inactive) | 46 µM (inactive) | > 100 µM (inactive) | 70.6 µM (inactive) | 32 µM (inactive) | 31.2 µM (inactive) | 34.4 µM (inactive) | > 100 µM (inactive) | > 100 µM (inactive) | 17.5 µM (inactive) | > 100 µM (inactive) | 54.2 µM (inactive) | > 100 µM (inactive) | 51.3 µM (inactive) | > 100 µM (inactive) | 79.6 µM (inactive) | 28.6 µM (inactive) | 56.8 µM (inactive) |
| CCc1c(O)cc(=O)oc1-c1ccc(OC)c(OC)c1 | > 100 µM (inactive) | > 100 µM (inactive) | > 100 µM (inactive) | > 100 µM (inactive) | > 100 µM (inactive) | > 100 µM (inactive) | > 100 µM (inactive) | > 100 µM (inactive) | > 100 µM (inactive) | > 100 µM (inactive) | > 100 µM (inactive) | > 100 µM (inactive) | > 100 µM (inactive) | > 100 µM (inactive) | > 100 µM (inactive) | > 100 µM (inactive) | > 100 µM (inactive) | > 100 µM (inactive) | > 100 µM (inactive) |
| CCOC(=O)C1(C/C=C\CBr)CCCCCCCCCCC1=O (stereo unspecified) | 15.3 µM (inactive) | 13.9 µM (inactive) | 17.1 µM (inactive) | 4.38 µM (inactive) | 20 µM (inactive) | 3.95 µM (inactive) | 0.428 µM (active) | 15.7 µM (inactive) | 3.36 µM (inactive) | 11.9 µM (inactive) | 15.5 µM (inactive) | 16.7 µM (inactive) | 2.09 µM (inactive) | 16.2 µM (inactive) | 14.5 µM (inactive) | 11 µM (inactive) | 16.9 µM (inactive) | 15.3 µM (inactive) | 12.1 µM (inactive) |
| COc1ccc2c3c([nH]c2c1)[C@H]1C[C@H]2[C@H](C[C@@H](O)[C@H](OC)[C@H]2C(=O)O)CN1CC3 | > 100 µM (inactive) | > 100 µM (inactive) | > 100 µM (inactive) | > 100 µM (inactive) | 62.8 µM (inactive) | > 100 µM (inactive) | > 100 µM (inactive) | > 100 µM (inactive) | > 100 µM (inactive) | > 100 µM (inactive) | > 100 µM (inactive) | > 100 µM (inactive) | > 100 µM (inactive) | > 100 µM (inactive) | > 100 µM (inactive) | > 100 µM (inactive) | > 100 µM (inactive) | > 100 µM (inactive) | > 100 µM (inactive) |
| CN(C)CCNc1ccc2c(=O)n(CCN(C)C)c(=O)n3c4ccccc4c(=O)c1c23 | 0.238 µM (active) | 0.0133 µM (active) | 0.0197 µM (active) | 0.0502 µM (active) | 0.305 µM (active) | 0.0133 µM (active) | 0.0624 µM (active) | 0.0836 µM (active) | 0.114 µM (active) | 0.0505 µM (active) | < 0.0113 µM (active) | 0.14 µM (active) | 0.218 µM (active) | 0.318 µM (active) | 0.0711 µM (active) | 0.0512 µM (active) | < 0.0243 µM (active) | 0.399 µM (active) | 0.133 µM (active) |
